# PubChem BioAssay AID1996
# Details: buffer; pH 7.4; 200.0 µM
row,Structure (SMILES),solubility kinetic [µg/mL]
1,COc1cc2c(cc1OC)CN(C(=O)CCC(=O)c1ccc(F)cc1)CC2,> 55.7
2,CC(=O)c1ccc(-c2ccc(C(=O)NCC(c3ccco3)N(C)C)o2)cc1 (stereo not given),> 55
3,COc1ccccc1NC(=S)NCc1ccccc1Cl,1.3
4,CC(C)CC1C(C#N)=C(N)OC2=C1C(=O)CC(c1ccccc1)C2 (stereo not given),37.6
5,COc1ccccc1NC(=O)COc1ccccc1C(=O)Nc1ccccc1,5.9
6,Cc1ccc(S(=O)(=O)N2CCCN(C(=O)OC(C)(C)C)CC2)cc1,> 53.2
7,O=C(COC(=O)c1cccnc1Cl)NCc1cccs1,44.1
8,O=C(/C=C/c1ccc(OCc2cccc(Cl)c2)cc1)N1CCOCC1,5.2
9,Nc1ncnc2c1ncn2C1OC(C(=O)NC2CC2)C(O)C1O (stereo not given),> 48
10,COc1ccc(F)cc1S(=O)(=O)NCC1CCCO1 (stereo not given),> 43.4
11,O=C(NC(=S)NC1C2CC3CC(C2)CC1C3)c1ccccc1 (stereo not given),< 0.3
12,O=C1C(=O)N(Cc2cccs2)c2ccccc21,> 36.5
13,O=C(O)c1ccc([N+](=O)[O-])c(CS(=O)(=O)c2ccccc2)c1,> 48.2
14,COc1ccc(CNc2nc3ccccc3s2)cc1OC,1.4
15,CNc1ccc(/C=C2\CSc3ccccc3C2=O)cc1[N+](=O)[O-],3
16,Cc1ccc(NC(=O)CN(C)C(=O)Cc2ccccc2F)cc1,> 47.2
17,CS(=O)(=O)N1CCC(C(=O)Nc2cccc(F)c2)CC1,> 45.1
18,COC(=O)[C@H](C)NC(=O)NCCC1=CCCCC1,> 38.1
19,CSc1ccccc1NS(=O)(=O)c1cccc2nonc12,> 48.2
20,COc1ccc(-n2cc([N+](=O)[O-])c(=O)c3ccc(Cl)cc32)cc1,0.7

row,Structure (SMILES),solubility kinetic [µg/mL]
1,Cc1cccc(OCC(=O)Nc2ccccc2F)c1,13.4
2,C=CCN(CC(=O)O)S(=O)(=O)c1ccccc1C(F)(F)F,> 48.5
3,COc1ccc(NC(=O)COC(=O)CCc2ccc(S(=O)(=O)N3CCOCC3)cc2)cc1Cl,19.6
4,COc1ccc(C2CC(=O)C(C=NCC(C)C)=C(O)C2)cc1 (stereo not given),40.6
5,O=c1[nH]cccc1-c1nc2ccccc2n1Cc1ccc(Cl)cc1,> 50.4
6,Fc1ccccc1CNc1ncnc2sccc12,9.9
7,COc1ccc(Cn2c(=O)oc3ccc(C)cc32)cc1,1.2
8,COc1ccccc1OCc1ccc(C(=O)NC2CCCCC2)o1,39.8
9,C=CC(=O)Oc1ccc(N2Cc3ccccc3C2=O)cc1,2.4
10,Cc1oc(C(N)=O)nc1-c1ccccc1,> 30.3
11,COC1CCCCC1NCCc1ccccc1.O=C(O)C(=O)O (stereo not given),> 48.5
12,Cc1cc(C)cc(CC2CC(=O)N(c3cc(C)ccc3C)C2=O)c1 (stereo not given),17.5
13,COc1cc(C(=O)OCC(=O)NC2CCCCC2)cc(OC)c1OC,> 52.7
14,CCCCNC(=O)COC(=O)c1ccccc1F,37.9
15,CCN1CCCC1CNC(=O)c1cc2cc(OC)c(OC)cc2[nH]1 (stereo not given),> 49.7
16,Cc1ccc(CNC(=S)NC2CCCCC2)cc1,32.3
17,NC(=O)NC(=O)COC(=O)c1sc2ccccc2c1Cl,1.2
18,Cc1ccc(S(=O)(=O)NC2CC(C)(C)NC(C)(C)C2)c(C)c1C,42.6
19,Cc1cc(C)c(S(=O)(=O)c2cccc(C)c2C)c(=O)[nH]1,> 43.7
20,CCC1CCCCN1C(=O)COC(=O)c1cc(=O)[nH]c2ccccc12 (stereo not given),> 51.4

row,Structure (SMILES),solubility kinetic [µg/mL]
1,Cn1cccc1C1C(C#N)=C(N)OC2=C1C(=O)CC(C)(C)C2 (stereo not given),43.2
2,O=C(NCCCN1CCCC1)Nc1ccc(F)cc1,35.2
3,CC1CC=C(c2ccccc2)C(=S)N1 (stereo not given),> 30.5
4,COc1ccc(C(=O)n2cnc3ccccc32)cc1Br,46.7
5,Cc1noc(NS(=O)(=O)c2ccc(NC(=O)C(C)C)cc2)c1C,> 50.6
6,CC(C(=O)NC1CCCCC1)N1C(=O)C2C3C=CC(C3)C2C1=O (stereo not given),> 47.5
7,Clc1cc(NC2CCCCC2)ncn1,> 31.8
8,O=C1NC(=O)/C(=C/c2ccc(-c3cccc([N+](=O)[O-])c3)o2)S1,3.8
9,COc1ccc(S(=O)(=O)Nc2cc(S(=O)(=O)N3CCOCC3)ccc2OC)cc1,37.3
10,COc1ccccc1OCCNC(=O)c1ccc(C)o1,> 41.3
11,CCC(C)C12CN3CCN(CC(C)(C3)C1O)C2 (stereo not given),> 35.8
12,Cc1cccc(C(=O)OCC(=O)N2CCN(C(=O)c3ccco3)CC2)c1O,38.8
13,COc1cccc(-c2cc(C(=O)NCC3CCCO3)c3cc(Br)cc(C)c3n2)c1 (stereo not given),< 0.5
14,c1cncc(-c2nc3ccccc3s2)c1,22.7
15,CCc1noc(C)c1C(=O)Nc1nc(-c2ccccc2)cs1,5
16,CC(C)c1ccc2nc(N)sc2c1,28.3
17,COc1cccc(Nc2nc(-c3sc(C)nc3C)cs2)c1,0.3
18,Cc1cccc(CC2CC(=O)N(c3ccc([N+](=O)[O-])cc3)C2=O)c1 (stereo not given),21
19,Cc1cc(Oc2ccc(Cl)cc2)nc(-c2ccccn2)n1,38.4
20,O=C(O)c1ccccc1Nc1cccc(C(F)(F)F)c1,> 42.2
